Assay results taken from patent publication US10533010B2, “Substituted indole Mcl-1 inhibitors” (Vanderbilt University, priority 2014, dated 2020).

molecular target: recombinant Mcl-1 (residues 172-327) (Homo sapiens (Human), UniProt Q07820); experiment: Fluorescence polarization anisotropy competition assay (FITC-Bak or FITC-Bim BH3 peptide) with Mcl-1; assay type: binding; conditions: Table 2; Ki bins given in nM; FITC-Bak or FITC-Bim peptide competition; Ki converted from IC50; read-out: Ki for Inhibition of Mcl-1
Sequence (Q07820 172-327): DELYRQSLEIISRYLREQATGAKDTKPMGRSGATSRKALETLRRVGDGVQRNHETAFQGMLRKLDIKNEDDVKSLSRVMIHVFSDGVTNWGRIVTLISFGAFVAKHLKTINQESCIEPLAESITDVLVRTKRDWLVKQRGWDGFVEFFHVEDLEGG

Structure (SMILES)	Ki [nM]
Cc1cc(OCCCc2c(C(=O)NCc3ccc(C(=O)O)o3)n(C)c3c(-c4c(C)nn(C)c4C)cccc23)cc(C)c1Cl [I-66, 5-((3-(3-(4-chloro-3,5-dimethylphenoxy)propyl)-1-methyl-7-(1,3,5-trimethyl-1H-pyrazol-4-yl)-1H-indole-2-carboxamido)methyl)furan-2-carboxylic acid]	< 50
Cc1cc(OCCCc2c(C(=O)NC3CCN(C(=O)c4cccc(Oc5ccccc5)c4)CC3)[nH]c3ccccc23)cc(C)c1Cl [I-67, 3-(3-(4-chloro-3,5-dimethylphenoxy)propyl)-N-(1-(3-phenoxybenzoyl)piperidin-4-yl)-1H-indole-2-carboxamide]	501 to 999
Cc1cc(OCCCc2c(C(=O)Nc3cccc(C(=O)NS(=O)(=O)c4ccc([N+](=O)[O-])cc4)c3)[nH]c3c(-c4cccnc4C)cccc23)cc(C)c1Cl [I-68, 3-(3-(4-chloro-3,5-dimethylphenoxy)propyl)-7-(2-methylpyridin-3-yl)-N-(3-(((4-nitrophenyl)sulfonyl)carbamoyl)phenyl)-1H-indole-2-carboxamide]	51 to 100
Cc1cc(OCCCc2c(C(=O)Nc3ccc(C(=O)NS(=O)(=O)c4ccc([N+](=O)[O-])cc4)cc3)[nH]c3c(-c4cccnc4C)cccc23)cc(C)c1Cl [I-69, 3-(3-(4-chloro-3,5-dimethylphenoxy)propyl)-7-(2-methylpyridin-3-yl)-N-(4-(((4-nitrophenyl)sulfonyl)carbamoyl)phenyl)-1H-indole-2-carboxamide]	101 to 299
CC/N=C(/NCCCN(C)C)n1nc(C)c(-c2cccc3c(CCCOc4cc(C)c(Cl)c(C)c4)c(C(=O)NCc4cccc(C(=O)O)c4)[nH]c23)c1C [I-70, 3-((3-(3-(4-chloro-3,5-dimethylphenoxy)propyl)-7-(1-(N-(3-(dimethylamino)propyl)-N′-ethylcarbamimidoyl)-3,5-dimethyl-1H-pyrazol-4-yl)-1H-indole-2-carboxamido)methyl)benzoic acid]	51 to 100
Cc1cc(OCCCc2c(C(=O)NCc3ccc(N4CCCCC4)c(C(=O)O)c3)[nH]c3c(-c4c(C)nn(C)c4C)cccc23)cc(C)c1Cl [I-73, 5-((3-(3-(4-chloro-3,5-dimethylphenoxy)propyl)-7-(1,3,5-trimethyl-1H-pyrazol-4-yl)-1H-indole-2-carboxamido)methyl)-2-(piperidin-1-yl)benzoic acid]	301 to 500
Cc1cc(OCCCc2c(C(=O)NCc3cc(C(=O)O)n(Cc4ccccc4)c3)[nH]c3c(-c4c(C)nn(C)c4C)cccc23)cc(C)c1Cl [I-75, 1-benzyl-4-((3-(3-(4-chloro-3,5-dimethylphenoxy)propyl)-7-(1,3,5-trimethyl-1H-pyrazol-4-yl)-1H-indole-2-carboxamido)methyl)-1H-pyrrole-2-carboxylic acid]	51 to 100
Cc1cc(OCCCc2c(C(=O)NCc3ccc(N4CCCC4)c(C(=O)O)c3)[nH]c3c(-c4c(C)nn(C)c4C)cccc23)cc(C)c1Cl [I-76, 5-((3-(3-(4-chloro-3,5-dimethylphenoxy)propyl)-7-(1,3,5-trimethyl-1H-pyrazol-4-yl)-1H-indole-2-carboxamido)methyl)-2-(pyrrolidin-1-yl)benzoic acid]	51 to 100
Cc1cc(OCCCc2c3n(c4c(-c5c(C)nn(C)c5C)cccc24)CCCN(Cc2cc(C(=O)O)n(Cc4ccccc4)c2)C3=O)cc(C)c1Cl [I-77, 1-benzyl-4-((1-(3-(4-chloro-3,5-dimethylphenoxy)propyl)-1-oxo-7-(1,3,5-trimethyl-1H-pyrazol-4-yl)-4,5-dihydro-1H-[1,4]diazepino[1,2-a]indol-2(3H)-yl)methyl)-1H-pyrrole-2-carboxylic acid]	51 to 100
Cc1cc(OCCCc2c3n(c4c(-c5c(C)nn(C)c5C)cccc24)CCCN(Cc2ccc(N4CCCC4)c(C(=O)O)c2)C3=O)cc(C)c1Cl [I-78, 5-((11-(3-(4-chloro-3,5-dimethylphenoxy)propyl)-1-oxo-7-(1,3,5-trimethyl-1H-pyrazol-4-yl)-4,5-dihydro-1H-[1,4]diazepino[1,2-a]indol-2(3H)-yl)methyl)-2-(pyrrolidin-1-yl)benzoic acid]	101 to 299
Cc1cc(OCCCc2c3n(c4c(-c5c(C)nn(C)c5C)cccc24)CCCN(Cc2cc(C(=O)O)n(C)c2)C3=O)cc(C)c1Cl [I-79, 4-((11-(3-(4-chloro-3,5-dimethylphenoxy)propyl)-1-oxo-7-(1,3,5-trimethyl-1H-pyrazol-4-yl)-4,5-dihydro-1H-[1,4]diazepino[1,2-a]indol-2(3H)-yl)methyl)-1-methyl-1H-pyrrole-2-carboxylic acid]	51 to 100
Cc1cc(OCCCc2c3n(c4c(-c5c(C)nn(C)c5C)cccc24)CCCN(Cc2ccc(N4CCCCC4)c(C(=O)O)c2)C3=O)cc(C)c1Cl [I-81, 5-((11-(3-(4-chloro-3,5-dimethylphenoxy)propyl)-1-oxo-7-(1,3,5-trimethyl-1H-pyrazol-4-yl)-4,5-dihydro-1H-[1,4]diazepino[1,2-a]indol-2(3H)-yl)methyl)-2-(piperidin-1-yl)benzoic acid]	51 to 100
Cc1cc(OCCCc2c3n(c4c(-c5c(C)nn(C)c5C)cccc24)CCCN(Cc2ccc(C(=O)O)cc2)C3=O)cc(C)c1Cl [I-83, 4-((11-(3-(4-chloro-3,5-dimethylphenoxy)propyl)-1-oxo-7-(1,3,5-trimethyl-1H-pyrazol-4-yl)-4,5-dihydro-1H-[1,4]diazepino[1,2-a]indol-2(3H)-yl)methyl)benzoic acid]	< 50
Cc1cc(OCCCc2c3n(c4c(-c5c(C)nn(C)c5C)cccc24)CCCN(Cc2cc(C(=O)O)cc(N4CCCC4)c2)C3=O)cc(C)c1Cl [I-84, 3-((11-(3-(4-chloro-3,5-dimethylphenoxy)propyl)-1-oxo-7-(1,3,5-trimethyl-1H-pyrazol-4-yl)-4,5-dihydro-1H-[1,4]diazepino[1,2-a]indol-2(3H)-yl)methyl)-5-(pyrrolidin-1-yl)benzoic acid]	101 to 299
Cc1cc(OCCCc2c3n(c4c(-c5c(C)nn(C)c5C)cccc24)CCN(Cc2cccc(-c4nnn[nH]4)c2)C3=O)cc(C)c1Cl [I-85, 2-(3-(1H-tetrazol-5-yl)benzyl)-10-(3-(4-chloro-3,5-dimethylphenoxy)propyl)-6-(1,3,5-trimethyl-1H-pyrazol-4-yl)-3,4-dihydropyrazino[1,2-a]indol-1(2H)-one]	< 50
Cc1cc(OCCCc2c3n(c4c(-c5c(C)nn(C)c5C)cccc24)CCCN(Cc2cc(C(=O)O)cc([N+](=O)[O-])c2)C3=O)cc(C)c1Cl [I-86, 3-((11-(3-(4-chloro-3,5-dimethylphenoxy)propyl)-1-oxo-7-(1,3,5-trimethyl-1H-pyrazol-4-yl)-4,5-dihydro-1H-[1,4]diazepino[1,2-a]indol-2(3H)-yl)methyl)-5-nitrobenzoic acid]	< 50
Cc1cc(OCCCc2c3n(c4c(-c5c(C)nn(C)c5C)cccc24)CCCN(Cc2ccc(-c4nnn[nH]4)cc2)C3=O)cc(C)c1Cl [I-88, 2-(4-(1H-tetrazol-5-yl)benzyl)-11-(3-(4-chloro-3,5-dimethylphenoxy)propyl)-7-(1,3,5-trimethyl-1H-pyrazol-4-yl)-2,3,4,5-tetrahydro-1H-[1,4]diazepino[1,2-a]indol-1-one]	< 50
Cc1cc(OCCCc2c(C(=O)NCc3cccn3CC(=O)O)[nH]c3c(-c4c(C)nn(C)c4C)cccc23)cc(C)c1Cl [I-89, 2-(2-((3-(3-(4-chloro-3,5-dimethylphenoxy)propyl)-7-(1,3,5-trimethyl-1H-pyrazol-4-yl)-1H-indole-2-carboxamido)methyl)-1H-pyrrol-1-yl)acetic acid]	< 50
Cc1cc(OCCCc2c(C(=O)Nc3ccc(C(=O)O)c(N4CCN(C)CC4)c3)[nH]c3c(-c4c(C)nn(C)c4C)c(Cl)ccc23)cc(C)c1Cl [I-90, 4-(6-chloro-3-(3-(4-chloro-3,5-dimethylphenoxy)propyl)-7-(1,3,5-trimethyl-1H-pyrazol-4-yl)-1H-indole-2-carboxamido)-2-(4-methylpiperazin-1-yl)benzoic acid]	< 50
Cc1cc(OCCCc2c(C(=O)Nc3ccc(C(=O)O)c(N4CCOCC4)c3)[nH]c3c(-c4c(C)nn(C)c4C)c(Cl)ccc23)cc(C)c1Cl [I-91, 4-(6-chloro-3-(3-(4-chloro-3,5-dimethylphenoxy)propyl)-7-(1,3,5-trimethyl-1H-pyrazol-4-yl)-1H-indole-2-carboxamido)-2-morpholinobenzoic acid]	< 50
Cc1cc(OCCCc2c(C(=O)Nc3ccc(C(=O)O)c(N(C)CCN(C)C)c3)[nH]c3c(-c4c(C)nn(C)c4C)c(Cl)ccc23)cc(C)c1Cl [I-92, 4-(6-chloro-3-(3-(4-chloro-3,5-dimethylphenoxy)propyl)-7-(1,3,5-trimethyl-1H-pyrazol-4-yl)-1H-indole-2-carboxamido)-2-((2-(dimethylamino)ethyl)(methyl)amino)benzoic acid]	< 50
Cc1cc(OCCCc2c3n(c4c(-c5c(C)nn(C)c5C)c(Cl)ccc24)CCCN(c2ccc(C(=O)O)c(C(F)(F)F)c2)C3=O)cc(C)c1Cl [I-93, 4-(8-chloro-11-(3-(4-chloro-3,5-dimethylphenoxy)propyl)-1-oxo-7-(1,3,5-trimethyl-1H-pyrazol-4-yl)-4,5-dihydro-1H-[1,4]diazepino[1,2-a]indol-2(3H)-yl)-2-(trifluoromethyl)benzoic acid]	< 50
Cc1cc(OCCCc2c3n(c4c(-c5c(C)nn(C)c5C)c(Cl)ccc24)CCCN(c2ccc(C(=O)O)c(F)c2)C3=O)cc(C)c1Cl [I-94, 4-(8-chloro-11-(3-(4-chloro-3,5-dimethylphenoxy)propyl)-1-oxo-7-(1,3,5-trimethyl-1H-pyrazol-4-yl)-4,5-dihydro-1H-[1,4]diazepino[1,2-a]indol-2(3H)-yl)-2-fluorobenzoic acid]	< 50
Cc1cc(OCCCc2c3n(c4c(-c5c(C)nn(C)c5C)c(Cl)ccc24)CCCN(c2ccc(C(=O)O)cc2F)C3=O)cc(C)c1Cl [I-95, 4-(8-chloro-11-(3-(4-chloro-3,5-dimethylphenoxy)propyl)-1-oxo-7-(1,3,5-trimethyl-1H-pyrazol-4-yl)-4,5-dihydro-1H-[1,4]diazepino[1,2-a]indol-2(3H)-yl)-3-fluorobenzoic acid]	< 50

same assay, conditions: Table 2; Ki bins given in μM; FITC-Bak or FITC-Bim peptide competition; Ki converted from IC50; read-out: Ki for Inhibition of Mcl-1

Structure (SMILES)	Ki [nM]
Cc1cc(OCCCc2c(C(=O)NCc3ccc(C(=O)O)o3)n(C)c3c(-c4c(C)nn(C)c4C)cccc23)cc(C)c1Cl [I-66, 5-((3-(3-(4-chloro-3,5-dimethylphenoxy)propyl)-1-methyl-7-(1,3,5-trimethyl-1H-pyrazol-4-yl)-1H-indole-2-carboxamido)methyl)furan-2-carboxylic acid]	10000 to 50000
